Here are results for 27 compounds from ChEMBL document CHEMBL5604063, “ASAP - DENV-2 NS2B-NS3 protease fluorescence dose response” (2024).

Values joined by “and” are separate entries in the source; they are usually repeats but may differ in a detail not shown here. Equal values may be shown once. Where only a bound is given, the exact number is not on record here.

For assay [1], the target named is T1, Genome polyprotein (dengue virus type 2, UniProt P29990). In kind it is functional, Thailand/16681/1984.
T1 sequence (P29990 1346-1475 limits assumed): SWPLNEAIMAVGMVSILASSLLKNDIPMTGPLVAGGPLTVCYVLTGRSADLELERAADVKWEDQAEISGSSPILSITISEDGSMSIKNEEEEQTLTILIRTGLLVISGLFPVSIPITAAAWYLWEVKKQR
T1 sequence (P29990 1476-2093 limits assumed): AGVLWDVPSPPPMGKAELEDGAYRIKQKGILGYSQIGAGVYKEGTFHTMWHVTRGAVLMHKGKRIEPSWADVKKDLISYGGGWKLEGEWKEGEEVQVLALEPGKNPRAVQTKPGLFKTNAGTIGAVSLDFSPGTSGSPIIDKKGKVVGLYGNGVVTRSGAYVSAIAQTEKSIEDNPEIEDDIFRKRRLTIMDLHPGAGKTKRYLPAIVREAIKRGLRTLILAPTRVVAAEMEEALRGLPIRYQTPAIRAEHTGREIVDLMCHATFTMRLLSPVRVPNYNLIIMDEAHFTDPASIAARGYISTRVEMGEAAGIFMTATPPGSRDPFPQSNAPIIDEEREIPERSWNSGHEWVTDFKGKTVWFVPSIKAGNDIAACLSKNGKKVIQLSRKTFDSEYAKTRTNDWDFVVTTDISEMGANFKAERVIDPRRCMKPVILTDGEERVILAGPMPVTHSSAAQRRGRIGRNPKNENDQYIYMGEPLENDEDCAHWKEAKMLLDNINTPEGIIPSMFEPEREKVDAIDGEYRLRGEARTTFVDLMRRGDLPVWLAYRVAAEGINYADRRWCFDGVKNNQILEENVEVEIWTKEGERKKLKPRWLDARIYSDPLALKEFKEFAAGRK
Assay [2] has as its target T1, Genome polyprotein. The assay is classed as functional, Thailand/16681/1984. This is another data set of the same source.

For `O=C(NCCC1CC1)[C@H](Nc1ccc2c(c1)CNC2)c1cc(Cl)cc(C2CC2)c1`, the figures for the IC50 against Genome polyprotein [1] and against Genome polyprotein [2] were above 100 µM and above 99.5 µM, respectively.

Turning to `C[C@](N)(C(=O)Nc1ccc2c(c1)C(=O)OC2)c1cccs1`, the 50% inhibitory concentration (IC50) was above 100 µM on Genome polyprotein [1] and above 99.5 µM against Genome polyprotein [2].

In the case of `C[C@@]1(c2cccc(CN)c2)C[C@H]1c1cc(Cl)cc(NC(=O)OCc2ccccc2)c1`, the values for the half-inhibitory concentration (IC50) against Genome polyprotein [1] and against Genome polyprotein [2] were above 100 µM and 17.5 µM, respectively.

Take `NCc1cccc(NC(=O)[C@H]2CCCN(C(=O)CC3CC3)C2)c1`: the IC50 was above 100 µM against Genome polyprotein [1] and above 99.5 µM against Genome polyprotein [2].

In the case of `CC(C)c1cc(Br)cc(C(=O)Nc2ccc3c(c2)CNC3)c1`, the half-maximal inhibitory concentration (IC50) at Genome polyprotein [1] is above 100 µM; against Genome polyprotein [2], above 99.5 µM.

Consider `O=C(Nc1ccc2c(c1)CNC2)c1cncc(N2CCOCC2)c1`, for which the figures for the IC50 on Genome polyprotein [1] and against Genome polyprotein [2] were above 100 µM and above 99.5 µM, respectively.

As to `Cn1nc(CCN)nc1NC(=O)c1cc(Cl)cc(NC(=O)OCc2ccccc2)c1`, the concentration for half-maximal inhibition (IC50) against Genome polyprotein [1] is above 100 µM; against Genome polyprotein [2], above 99.5 µM.

On to `Cc1c(C(=O)Nc2cc(-c3ccccn3)c(Br)cn2)cc(C2CC2)n1C`, for which the concentration for half-maximal inhibition (IC50) on Genome polyprotein [1] is above 100 µM; against Genome polyprotein [2], above 99.5 µM.

Turning to `O=C(Nc1cc(Cl)cc(-c2ccc3[nH]c(C(=O)O)cc3c2)c1)OCc1ccccc1`, the IC50 against Genome polyprotein [1] was 5.48 µM and 4.93 µM; on Genome polyprotein [2], 6.65 µM and 5.47 µM.

On to `O=C(Nc1ccc2c(c1)CNC2)c1cc(Cl)cc2[nH]c(-c3cn[nH]c3)cc12`, for which the figures for the half-maximal inhibitory concentration (IC50) against Genome polyprotein [1] and against Genome polyprotein [2] were above 100 µM and above 99.5 µM, respectively.

`CCOCCS(=O)(=O)N1CCC([C@H](NC(=O)OCc2ccccc2)C(=O)Nc2cccc(CN)c2)CC1`: the IC50 is above 100 µM against Genome polyprotein [1] and above 99.5 µM against Genome polyprotein [2].

For the compound `CNc1c(-c2cc(Cl)cc(C3CC3)c2)nc2cccc(C(=O)O)n12`, the figures for the IC50 on Genome polyprotein [1] and at Genome polyprotein [2] were above 100 µM and above 99.5 µM, respectively.

Take `O=C(Nc1cc2c(cc1Br)CNC2)c1cc(Cl)cc2[nH]ncc12`: the concentration for half-maximal inhibition (IC50) is above 100 µM at Genome polyprotein [1] and above 99.5 µM at Genome polyprotein [2].

On to `O=C1CN(C(=O)Nc2ccc3c(c2)CNC3)[C@H]2CCCC[C@H]2N1`, for which the figures for the IC50 on Genome polyprotein [1] and on Genome polyprotein [2] were above 100 µM and above 99.5 µM, respectively.

For `O=C(NCCCn1ccnc1)[C@H](Nc1ccc2c(c1)CNC2)c1cc(Cl)cc(C2CC2)c1`, the half-inhibitory concentration (IC50) is above 100 µM at Genome polyprotein [1] and above 99.5 µM on Genome polyprotein [2].

Take `CCc1nccn1CC(=O)Nc1ccc2c(c1)CNC2`: the values for the IC50 on Genome polyprotein [1] and against Genome polyprotein [2] were above 100 µM and above 99.5 µM, respectively.

Consider `c1ccc2c(Cc3ccc(-c4nnn[nH]4)cc3)c[nH]c2c1`, for which the half-maximal inhibitory concentration (IC50) against Genome polyprotein [1] was above 100 µM; against Genome polyprotein [2], above 99.5 µM.

For the compound `O=C1Cc2c(cccc2C(=O)N[C@H]2CCSC3(CCOCC3)C2)N1`, the half-inhibitory concentration (IC50) was above 100 µM against Genome polyprotein [1] and above 99.5 µM against Genome polyprotein [2].

`Cn1nc(C2CC2)c2c(C(=O)Nc3cccc(CN)c3)cc(C3CC3)nc21`: the IC50 at Genome polyprotein [1] was above 100 µM; on Genome polyprotein [2], above 99.5 µM.

Take `Cc1c(C(=O)Nc2ccc3c(c2)CCCC(=O)N3C)cc(C2CC2)n1C`: the IC50 at Genome polyprotein [1] was above 100 µM; against Genome polyprotein [2] it was above 99.5 µM.

As for `O=C(Nc1cc(Cl)cc([C@H]2C[C@@H]2c2cccc(-c3nnn[nH]3)c2)c1)OCc1ccccc1`, the IC50 against Genome polyprotein [1] worked out at 19.1 µM; at Genome polyprotein [2], 16.2 µM.

Regarding `CC(C)CNC(=O)[C@H](Nc1cccc(-c2nnn[nH]2)c1)c1cc(Cl)cc(C2CC2)c1`, the IC50 was 47.3 µM on Genome polyprotein [1] and 74.4 µM against Genome polyprotein [2].

For the compound `Cc1c(C(=O)Nc2cccc([C@@H](C)N)c2)cc(C2CC2)n1C`, the concentration for half-maximal inhibition (IC50) at Genome polyprotein [1] was above 100 µM; at Genome polyprotein [2] it was above 99.5 µM.

Consider `O=C(Nc1ccc2c(c1)CN[C@H]2C[C@H](O)CO)c1cc(Cl)cc2[nH]ncc12`, for which the concentration for half-maximal inhibition (IC50) against Genome polyprotein [1] was 80.2 µM; against Genome polyprotein [2], above 99.5 µM.

As for `CS(=O)(=O)c1ccc(NC(=O)c2cc(Cl)cc(NC(=O)OCc3ccccc3)c2)cc1`, the IC50 against Genome polyprotein [1] is above 100 µM; at Genome polyprotein [2], above 99.5 µM.

Take `O=C(Nc1ccc2c(c1)CNC2)c1n[nH]c(=O)c2ccccc12`: the results for the IC50 at Genome polyprotein [1] and against Genome polyprotein [2] were above 100 µM and 36.8 µM, respectively.

Take `CCC1(NC(=O)Cn2ccnc(N3CC[C@@H](CO)C3)c2=O)CC1`: the IC50 at Genome polyprotein [1] was above 100 µM; against Genome polyprotein [2] it was above 99.5 µM.

As a reminder, the IC50 is the point on the concentration scale where inhibition reaches its midpoint. A lower IC50 goes with inhibition by little substance.
